According to patent US20240118281A1, “ANTICANCER COMPOUNDS AND USES THEREOF” (University of Florida Research Foundation, Incorporated, priority 2021, published 2024):

What was measured:
[1] = biological target: T1, ERp44/DR5 complexes (Homo sapiens, UniProt Q9BS26); assay: ERp44 co-immunoprecipitation; assay type: cell-based; settings: MDA-MB-468 cells inducibly expressing wild type DR5, 24 h, FIG. 7D
T1 construct: endogenous in cells; host or cells: MDA-MB-468
T1 sequence (O14763 56-440 partner, one chain of several): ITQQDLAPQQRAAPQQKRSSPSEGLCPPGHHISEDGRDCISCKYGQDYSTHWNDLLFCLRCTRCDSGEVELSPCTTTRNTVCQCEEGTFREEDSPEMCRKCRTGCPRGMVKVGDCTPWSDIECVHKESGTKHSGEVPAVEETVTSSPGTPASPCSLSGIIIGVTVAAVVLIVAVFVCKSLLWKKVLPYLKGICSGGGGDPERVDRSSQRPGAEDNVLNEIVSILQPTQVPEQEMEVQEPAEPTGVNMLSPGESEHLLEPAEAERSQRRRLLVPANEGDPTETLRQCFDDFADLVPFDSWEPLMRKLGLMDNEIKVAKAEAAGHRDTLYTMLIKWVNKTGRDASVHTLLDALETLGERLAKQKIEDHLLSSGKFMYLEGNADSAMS

[2] = biological target: T2, ERp44/DR5 complexes (Homo sapiens, UniProt Q9BS26); assay: ERp44 co-immunoprecipitation; assay type: cell-based; settings: MDA-MB-468 cells inducibly expressing Δ81-178 DR5, 24 h, FIG. 7D
T2 construct: endogenous in cells; host or cells: MDA-MB-468

[3] = biological target: T3, ERp44 (Homo sapiens, UniProt Q9BS26); assay: In vitro binding assay with recombinant purified ERp44; settings: pre-incubation with a molar excess, FIG. 3D
T3 sequence (Q9BS26 30-406): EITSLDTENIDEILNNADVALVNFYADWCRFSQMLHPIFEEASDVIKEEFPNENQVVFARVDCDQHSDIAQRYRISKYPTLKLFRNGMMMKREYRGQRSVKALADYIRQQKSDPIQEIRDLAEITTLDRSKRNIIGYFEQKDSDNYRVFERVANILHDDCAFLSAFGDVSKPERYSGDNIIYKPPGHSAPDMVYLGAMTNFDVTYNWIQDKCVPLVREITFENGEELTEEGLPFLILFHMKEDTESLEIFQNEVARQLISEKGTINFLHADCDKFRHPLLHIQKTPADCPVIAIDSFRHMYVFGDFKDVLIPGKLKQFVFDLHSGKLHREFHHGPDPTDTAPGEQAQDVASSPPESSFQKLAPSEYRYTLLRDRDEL
Procedure: Purified His6-AGR2 or His6-AGR2 C81S, as prepared above, or His6-AGR2 (PRO-580) or His6-AGR3 (PRO-242) obtained from ProSpec (New Brunswick NJ) were incubated with or without varying concentrations of the unlabeled DDA competitors, tcyDTDO or dMtcyDTDO, and 30 μM Biotin-GlyPyrDTDO or Biotin-PyrDTDO in buffer (20 mM HEPES (pH 7.4), 1 mM EDTA, 1 mM EGTA, 5% Glycerol, 1 nM Microcystin, 1 mM Na3VO4, and 40 mM Na2H2P2O7) containing 1% Triton-X 100 for 30 min at 37° C. […] Therefore, the two probes were used interchangeably. Reactions were stopped by boiling the samples in 2×-SDS-Sample Buffer containing 100 mM NEM for 10 min. Biotin-DDA labeling of protein was verified by blotting with Streptavidin-Alkaline Phosphatase (Rockland Immunochemicals, Inc., Limerick, PA). ERp44 (PRO-547) and PDIA1 (ENZ-262) were obtained from ProSpec and used in experiments examining the binding of these proteins to Biotin-PyrDTDO.

[4] = test system: DR4; assay: Surface biotinylation; assay type: cell-based; settings: MDA-MB-468 cells, 2.5 μM, 24 h, amine- or thiol-reactive probes, FIG. 6D
Procedure: (§1) Cell surface proteins were labeled by incubation of cells with 1.6 mM Sulfo-NHS-SS-Biotin (Thermo Fisher Scientific, Waltham, MA) or 1.6 mM Biotin-dPEG3-Maleimide (MilliporeSigma, St. Louis, MO) in Phosphate-Buffered Saline (PBS), pH 8.0 for 30 minutes at 4° C. The cells were subsequently washed three times with PBS, and proteins were extracted in a buffer containing 1% Triton X-100 extraction buffer in the absence of reducing agents. Cell extracts were then incubated with Streptavidin-agarose beads (Thermo Fisher Scientific, Waltham, MA) for 2.5 h at 4° C. Following centrifugation, the supernatant containing non-biotinylated proteins (flow-through) was retained and boiled in 2×-SDS-Sample Buffer containing 1% 2-mercaptoethanol. Streptavidin-agarose beads bound to biotinylated proteins were washed four times with 0.1% Triton X-100 extraction buffer, followed by boiling in 2×-SDS-Sample Buffer containing 1% 2-mercaptoethanol. Samples were then analyzed by immunoblot or blotting with Streptavidin-Alkaline Phosphatase.

[5] = test system: DR5; assay: Surface biotinylation; assay type: cell-based; settings: MDA-MB-468 cells, 2.5 μM, 24 h, amine- or thiol-reactive probes, FIG. 6D
Procedure: as §1

[6] = test system: DR5; assay: Doxycycline-inducible DR5 (wild type and Cys mutants) expression, non-reducing immunoblot; assay type: cell-based; settings: MDA-MB-468 stable cell lines, 24 h, FIG. 7E
Procedure: (§2) To assess protein disulfide bond-mediated oligomerization, cells were treated with DDAs for 24 h in 10% FBS-DMEM. Cells were subsequently scraped directly into the media and pelleted by centrifugation. Cells were extracted directly into boiling 2×-SDS-Sample Buffer containing 100 mM NEM and boiled for 10 min. Samples were sonicated, followed by centrifugation for 20 min at room temperature. Samples were subsequently analyzed by SDS-PAGE and immunoblot.

[7] = test system: DR4; assay: Disulfide bond-mediated oligomerization, non-reducing immunoblot; assay type: cell-based
Text: (§3) The BT20, BT474, BT549, MCF7, MDA-MB-231, MDA-MB-436, MDA-MB-468, HCC1143, HCC1500, HCC1569, HCC1937, HCC1954, Hs578t, and T47D cells lines were purchased from American Type Culture Collection (ATCC) (Manassas, VA). The HCI-001 cell line was derived from an ER-/PR-/HER2- patient-derived xenograft originally isolated from a patient as described previously (DeRose Y S, et al. Nat Med 2011; 17: 1514-1520). The HCI-001/LVM2 model was derived from the HCI-001 cell line by performing two rounds of selection for liver metastasis, as described previously (Wang M, et al. Cell Death Discovery 2019; 5: 153). Cell lines were grown in Dulbecco's Modified Eagle's Medium (GE Healthcare Life Sciences, Logan, UT) containing 10% fetal bovine serum (10% FBS—DMEM) in a humidified incubator with 5% CO2 at 37° C. Cell lysates were prepared as described previously (Law B K, et al. Mol Cell Biol. 2002; 22: 8184-8198). Immunoblot analysis was performed utilizing the following antibodies purchased from Cell Signaling Technology (Beverly, MA) [Akt, #4691; P-Akt[T308], #13038; ATF4, #11815; CHOP, #2895; Cleaved Caspase 8, #9496; DR4, #42533; DR5, #8074; EGFR, #4267; GRP78, #3177; HER3, #4754; PARP, #9532; PDIA1, #3501; XBP1s, #12782], from Santa Cruz Biotechnology (Santa Cruz, CA) [Actin, sc-47778; AGR2/3, sc-376653; AGR3, sc-390940; ERO1-a, sc-100805; and ERp44, sc-393687], or from Rockland Immunochemicals, Inc. (Limerick, PA), Streptavidin-Alkaline Phosphatase conjugated (SA-AP), S000-05.
as §2

[8] = test system: EGFR; assay: as above; assay type: cell-based; settings: MDA-MB-468 cells, 24 h, FIG. 1E right
Text: as §3, §2

[9] = test system: Caspase 8; assay: Caspase 8 cleavage/activation (CC8), immunoblot; assay type: cell-based; settings: 24 h
Text: The BT20, BT474, BT549, MCF7, MDA-MB-231, MDA-MB-436, MDA-MB-468, HCC1143, HCC1500, HCC1569, HCC1937, HCC1954, Hs578t, and T47D cells lines were purchased from American Type Culture Collection (ATCC) (Manassas, VA). The HCI-001 cell line was derived from an ER-/PR-/HER2- patient-derived xenograft originally isolated from a patient as described previously (DeRose Y S, et al. Nat Med 2011; 17: 1514-1520). The HCI-001/LVM2 model was derived from the HCI-001 cell line by performing two rounds of selection for liver metastasis, as described previously (Wang M, et al. Cell Death Discovery 2019; 5: 153). Cell lines were grown in Dulbecco's Modified Eagle's Medium (GE Healthcare Life Sciences, Logan, UT) containing 10% fetal bovine serum (10% FBS—DMEM) in a humidified incubator with 5% CO2 at 37° C. Cell lysates were prepared as described previously (Law B K, et al. Mol Cell Biol. 2002; 22: 8184-8198). […]
To assess protein disulfide bond-mediated oligomerization, cells were treated with DDAs for 24 h in 10% FBS-DMEM. […] Samples were subsequently analyzed by SDS-PAGE and immunoblot.

CO[C@H]1C[C@@H]2CS(=O)(=O)SC[C@H]2C[C@@H]1OC [dMtcyDTDO, dimethoxy-tcyDTDO]
ERp44 binding to wild type DR5 in treated cells [1]: wild type DR5 bound ERp44 | ERp44 binding to DR5[Δ81-178] in treated cells [2]: barely detectable | Block of Biotin-PyrDTDO biotinylation of ERp44 [3]: biotinylation was blocked | Cell surface levels of DR4 [4]: increased cell surface levels of DR4 and DR5 | Cell surface levels of DR5 [5]: increased cell surface levels of DR4 and DR5 | Expression of C119S or C160S DR5 mutants [6]: did not further increase expression of the C119S or C160S DR5 mutants | Wild type DR5 expression on co-treatment with doxycycline [6]: further increased DR5 expression | Levels and oligomerization of DR4, densitometry ([7]; 0, 1.25, 2.5, 5 uM, FIG. 1F): increases DR4 oligomerization without affecting overall DR4 levels | Concentration at which disulfide-mediated oligomerization of DR4 was detected ([7]; MDA-MB-468 cells, 24 h, FIG. 1E right): 625 nM | DR4/5 oligomerization at the same concentration (DR4) ([7]; MDA-MB-468 cells, 24 h, compared with tcyDTDO, FIG. 1E left): more DR4/5 oligomerization | Concentration at which disulfide-mediated oligomerization of EGFR was detected [8]: 625 nM | Induction of Caspase 8 cleavage/activation (CC8) in ERp44 knockdown versus vector control cells ([9]; MDA-MB-468 cells, 2.5 or 5 μM, FIG. 5D): increased dMtcyDTDO induction of Caspase 8 cleavage/activation | Caspase 8 cleavage in cells expressing C119S or C160S DR5 mutants ([9]; MDA-MB-468 stable cell lines, FIG. 7E): modestly increased Caspase 8 cleavage
